According to patent US10232013B2, “Use of an antimicrobial peptide TP4 in treating a cancer” (Academia Sinica, priority 2016, dated 2019):
Marks after values point to notes of the source that are not given here. Where no end group is shown, it is not given here.

Assays:
MB231 (MDA-MB231) cells = test: MTS cell viability assay, MB231; type: cell-based, human; conditions: mean±SD
Procedure: Cell-lines used in this study were purchased from the Bioresource Collection and Research Center (BCRC) in and the cells were cultured by the standard cell culture procedures and conditions provided by the BCRC. MB231 (BCRC 60425), MB453 (BCRC 60429), and HDF cells were cultured as previously described by Ting et al. MCF7 […] cells were maintained in α-MEM medium (ThermoFisher Scientific) supplemented with 2 mM L-glutamine, 10% FBS, 0.1 mM non-essential amino acids, 1 mM sodium pyruvate, and antibiotics (100 U mL^−1 penicillin G and […] streptomycin). M10 (BCRC 60197) cells were maintained in α-MEM medium (ThermoFisher Scientific) supplemented with 10% FBS and antibiotics. With the exception of MB231 and MB453, all cells were cultured at 37° C. with 5% CO2. For the cell viability and transfection assay, 1×10^4 cells [5×10^3 M10 cells were seeded and cultured for 48 h to allow the cells sufficient time for attachment] were seeded into the wells of a 96-well plate and cultured overnight. For the transfection assays, cells were transfected with 0.1-0.4 μg FOSB/FOSAB expression plasmid (Origene Technology Inc.) and cell viability was determined after 72 h. The transfection efficiencies (number of cells expressing eGFP/all cells) of the MB231 transfection assays were determined by observing ten randomly selected fields (from three independent transfections) of control GFP plasmid transfections under an inverted microscope (Olympus, IX71) coupled to a digital camera (Olympus DP80), using an […] (LCPlanFI 20×/0.40 Ph1). CellSens standard software (Olympus) was used for image acquisition. During the drug treatment assay, inhibitors (PD98059, BAPTA-AM, and AlP II) were added 30 min prior to TP4, and cell viability was determined at indicated time-points. Transfection was performed using LipofectAMINE™ 3000 (ThermoFisher Scientific), according to the manufacturer's recommendations. Knock-down cells were generated by transducing MB231 cells with pre-synthesized FOSB (or control) shRNA lentiviral particles (Santa Cruz Biotechnology), and selecting puromycin-resistant cells in accordance with the manufacturer's standard protocol. MB231 or M10 cells stably expressing eGFP or mOrange2 were generated through transfection with peGFP-puromycin or pmOrange2-C1 plasmid, followed by puromycin (5 μg mL^−1) or G418 (500 μg mL^−1) selection as described above.
Cell viability was quantitatively analyzed using the CellTiter-Glo® Luminescent Cell Viability Assay kit (ATP assay) and CellTiter 96® AQueous Non-Radioactive Cell Proliferation Assay kit (MTS assay) (Promega) in accordance with the manufacturer's protocol. For MTS assay, 1×10^4 cells were seeded into the wells of a 96-well plate and cultured overnight [5×10^3 M10 cells were seeded and cultured for 48 h to enable sufficient well attachment]. Cells were subsequently treated with different doses of TP4 (2.5-20 μg mL^−1) and harvested at the indicated time-points (3-24 h). Reaction mixtures (20 μL: MTS+PMS, using a ratio 20:1) were directly added to the cells, and the plates were incubated for 3 h at 37° C. Absorbance at 490 nm is directly proportional to the number of living cells in culture and was measured using a photometer (SpectraMax® i3, Molecular Devices). ATP assay was performed as previously described by Ting et al. Lactate dehydrogenase (LDH) assays were performed by quantitatively measuring cell lysis with a Cytotoxicity Detection Kit^PLUS (LDH) (Roche) in accordance with the manufacturer's protocol. The LDH standard was purchased from Cayman Chemical. Briefly, 1×10^4 cells were seeded into the wells of a 96-well plate and cultured overnight. Culture media were replaced with fresh medium containing 1% FBS and cells were subsequently treated with different doses of TP4 (2.5-20 μg mL^−1). Supernatants were harvested at 3 h. […]

MB231 tumors = system: MB231 tumors; parameters: species or system BALB/c nu/nu mice; conditions: in vivo
Source text: Female BALB/c nu/nu mice were obtained from BioLASCO Taiwan, Co., Ltd., and housed at the Laboratory Animal Facility, National Taiwan Ocean University, Keelung, Taiwan. Mice were maintained in pathogen-free sterile isolators, according to the guidelines of the Council of Agriculture (COA, Taiwan), and all food, water, caging, and bedding were sterilized before use. The animal protocol (103034) was approved by the Institutional Animal Care and Use Committee (IACUC) of the College of Life Science, National Taiwan Ocean University. For the TP4 treatment assay, nude mice with pre-growth MB231 tumors (n=5 for each group) were subcutaneously injected with TP4 (500 μg in 50 μL distilled water plus 10 μL KY jelly (Johnson & Johnson)) every two days for a total of fourteen times, by which time the tumors had reached an average volume of 30-50 mm^3 in size. Age-matched control nude mice without tumor xenografts were injected with KY jelly (10 μL plus 50 μL distilled water). Tumor size was calculated every two days, using the following formula: volume=[(height×length×width)×3.1416]/6. Mice were sacrificed 28 days after the beginning of TP4 treatment, and the tumors were harvested and weighed. Tumor samples were fixed with formalin and embedded with paraffin. Paraffin sections were stained by Hematoxylin & Eosin (H&E) and immunostained with Ki-67 antibody (Cell Signaling, clone D2H10, 1:100). […]

“FIHHIIGGLFSAGKAIHRLIRRRRR [TP4, tilapia piscidin 4]” was tested, and the “Cellular toxicity (cell viability), MTS assay” value (“Cellular toxicity” for short) (MB231 (MDA-MB231) cells; MB231, TP4 2.5 μg/mL, 3 h) was 95.34 ± 5.56^a, the “Cellular toxicity” value (MB231 (MDA-MB231) cells; MB231, TP4 2.5 μg/mL, 6 h) was 95.93 ± 8.86^a and the “Cellular toxicity” value (MB231 (MDA-MB231) cells; MB231, TP4 2.5 μg/mL, 12 h) was 87.60 ± 12.28^c. The “Cellular toxicity” value (MB231 (MDA-MB231) cells; MB231, TP4 2.5 μg/mL, 24 h) was 87.01 ± 9.69^c, the “Cellular toxicity” value (MB231 (MDA-MB231) cells; MB231, TP4 5.0 μg/mL, 3 h) was 90.55 ± 10.57^a and the “Cellular toxicity” value (MB231 (MDA-MB231) cells; MB231, TP4 5.0 μg/mL, 6 h) was 82.30 ± 6.40^d. For the same sequence, the “Cellular toxicity” value (MB231 (MDA-MB231) cells; MB231, TP4 5.0 μg/mL, 12 h) was 79.00 ± 9.48^d, the “Cellular toxicity” value (MB231 (MDA-MB231) cells; MB231, TP4 5.0 μg/mL, 24 h) was 71.69 ± 6.84^d and the “Cellular toxicity” value (MB231 (MDA-MB231) cells; MB231, TP4 10.0 μg/mL, 3 h) was 75.01 ± 11.29^d. The “Cellular toxicity” value (MB231 (MDA-MB231) cells; MB231, TP4 10.0 μg/mL, 6 h) was 65.28 ± 6.61^d, the “Cellular toxicity” value (MB231 (MDA-MB231) cells; MB231, TP4 10.0 μg/mL, 12 h) was 61.63 ± 11.38^d and the “Cellular toxicity” value (MB231 (MDA-MB231) cells; MB231, TP4 10.0 μg/mL, 24 h) was 57.98 ± 6.62^d. For the same sequence, the “Cellular toxicity” value (MB231 (MDA-MB231) cells; MB231, TP4 15.0 μg/mL, 3 h) was 52.48 ± 11.16^d, the “Cellular toxicity” value (MB231 (MDA-MB231) cells; MB231, TP4 15.0 μg/mL, 6 h) was 42.59 ± 10.14^d and the “Cellular toxicity” value (MB231 (MDA-MB231) cells; MB231, TP4 15.0 μg/mL, 12 h) was 38.31 ± 7.26^d. The “Cellular toxicity” value (MB231 (MDA-MB231) cells; MB231, TP4 15.0 μg/mL, 24 h) was 29.78 ± 4.79^d, the “Cellular toxicity” value (MB231 (MDA-MB231) cells; MB231, TP4 20.0 μg/mL, 3 h) was 30.57 ± 4.64^d and the “Cellular toxicity” value (MB231 (MDA-MB231) cells; MB231, TP4 20.0 μg/mL, 6 h) was 26.65 ± 7.16^d. For the same sequence, the “Cellular toxicity” value (MB231 (MDA-MB231) cells; MB231, TP4 20.0 μg/mL, 12 h) was 19.31 ± 5.73^d, the “Cellular toxicity” value (MB231 (MDA-MB231) cells; MB231, TP4 20.0 μg/mL, 24 h) was 16.19 ± 4.15^d and the mouse body weight (MB231 tumors) was “no significant differences”. For the same sequence, the “body weight and adverse side-effects” value (MB231 tumors; mouse) was “without affecting body weight or causing adverse side-effects”.
